Values belong to the compound of their own block, whether it stands above or below them.
Tests used:
Uba6 (Uba6_Apo; Uba6_WT) [1] = target: T1, Uba6 (Uba6_Apo; Uba6_WT) (Homo sapiens, UniProt A0AVT1); test: isothermal titration calorimetry; format: binding
T1 construct: residues 37-1052; crystal from insect cells, His tag cleaved by TEV, C625A
T1 sequence (A0AVT1 37-1052): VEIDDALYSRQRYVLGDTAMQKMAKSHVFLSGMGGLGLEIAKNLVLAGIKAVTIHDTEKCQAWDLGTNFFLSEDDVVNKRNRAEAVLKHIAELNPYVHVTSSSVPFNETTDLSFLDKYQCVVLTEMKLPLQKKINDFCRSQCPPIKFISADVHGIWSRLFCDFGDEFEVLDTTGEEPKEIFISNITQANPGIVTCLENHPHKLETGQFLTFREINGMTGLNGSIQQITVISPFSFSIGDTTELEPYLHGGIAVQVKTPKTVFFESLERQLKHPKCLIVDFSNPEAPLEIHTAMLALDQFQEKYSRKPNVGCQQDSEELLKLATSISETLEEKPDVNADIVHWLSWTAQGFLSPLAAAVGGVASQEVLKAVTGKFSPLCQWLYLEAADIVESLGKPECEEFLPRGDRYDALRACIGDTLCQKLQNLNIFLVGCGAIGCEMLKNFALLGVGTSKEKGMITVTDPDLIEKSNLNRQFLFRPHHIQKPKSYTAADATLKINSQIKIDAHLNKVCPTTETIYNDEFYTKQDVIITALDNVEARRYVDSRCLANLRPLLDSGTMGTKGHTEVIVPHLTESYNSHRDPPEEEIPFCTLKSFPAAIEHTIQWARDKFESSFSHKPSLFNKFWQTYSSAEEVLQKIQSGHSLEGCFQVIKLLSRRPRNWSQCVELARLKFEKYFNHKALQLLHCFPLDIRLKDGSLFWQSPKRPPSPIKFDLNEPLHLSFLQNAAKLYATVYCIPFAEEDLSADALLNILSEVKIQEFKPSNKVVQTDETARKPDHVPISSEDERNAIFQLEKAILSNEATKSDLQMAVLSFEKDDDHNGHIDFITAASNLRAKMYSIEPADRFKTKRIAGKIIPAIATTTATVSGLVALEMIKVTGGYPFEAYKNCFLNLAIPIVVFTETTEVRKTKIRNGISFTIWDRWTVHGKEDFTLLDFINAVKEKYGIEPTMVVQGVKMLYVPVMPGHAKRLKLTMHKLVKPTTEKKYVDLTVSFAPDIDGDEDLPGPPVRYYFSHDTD

Uba6 SCCH domain = target: T2, Uba6 SCCH domain (Homo sapiens, UniProt A0AVT1); test: thermal shift assay (SYPRO Orange); format: binding; conditions: ~43 °C without ligand, 20 mM HEPES pH 7.5, 150 mM NaCl, 0.25 mM TCEP, E. coli-derived
T2 construct: standalone SCCH domain, residues 615-892, E. coli, SMT3 tag cleaved by ULP1
T2 sequence (A0AVT1 615-892): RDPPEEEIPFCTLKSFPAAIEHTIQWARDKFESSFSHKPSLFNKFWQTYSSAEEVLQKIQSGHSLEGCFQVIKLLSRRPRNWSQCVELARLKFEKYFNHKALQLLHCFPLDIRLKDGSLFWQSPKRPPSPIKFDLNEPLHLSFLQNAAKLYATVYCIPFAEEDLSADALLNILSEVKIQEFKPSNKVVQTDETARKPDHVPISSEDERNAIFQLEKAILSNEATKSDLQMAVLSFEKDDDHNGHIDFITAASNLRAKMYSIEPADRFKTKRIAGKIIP

Uba1 (Uba1_WT) = target: T3, Uba1 (Uba1_WT) (Homo sapiens, UniProt P22314); test: gel-based Uba1~Ub thioester formation, […] s; format: biochemical; conditions: ubiquitin 2.5 μM, 0-50 μM InsP6, 100 nM E1, 500 μM ATP, 5 mM MgCl2, pH 7.4, RT
T3 construct: E. coli-produced Uba1; a Uba1 SCCH domain (625-892) was also made and may be the ITC sample
T3 sequence (P22314 2-1058): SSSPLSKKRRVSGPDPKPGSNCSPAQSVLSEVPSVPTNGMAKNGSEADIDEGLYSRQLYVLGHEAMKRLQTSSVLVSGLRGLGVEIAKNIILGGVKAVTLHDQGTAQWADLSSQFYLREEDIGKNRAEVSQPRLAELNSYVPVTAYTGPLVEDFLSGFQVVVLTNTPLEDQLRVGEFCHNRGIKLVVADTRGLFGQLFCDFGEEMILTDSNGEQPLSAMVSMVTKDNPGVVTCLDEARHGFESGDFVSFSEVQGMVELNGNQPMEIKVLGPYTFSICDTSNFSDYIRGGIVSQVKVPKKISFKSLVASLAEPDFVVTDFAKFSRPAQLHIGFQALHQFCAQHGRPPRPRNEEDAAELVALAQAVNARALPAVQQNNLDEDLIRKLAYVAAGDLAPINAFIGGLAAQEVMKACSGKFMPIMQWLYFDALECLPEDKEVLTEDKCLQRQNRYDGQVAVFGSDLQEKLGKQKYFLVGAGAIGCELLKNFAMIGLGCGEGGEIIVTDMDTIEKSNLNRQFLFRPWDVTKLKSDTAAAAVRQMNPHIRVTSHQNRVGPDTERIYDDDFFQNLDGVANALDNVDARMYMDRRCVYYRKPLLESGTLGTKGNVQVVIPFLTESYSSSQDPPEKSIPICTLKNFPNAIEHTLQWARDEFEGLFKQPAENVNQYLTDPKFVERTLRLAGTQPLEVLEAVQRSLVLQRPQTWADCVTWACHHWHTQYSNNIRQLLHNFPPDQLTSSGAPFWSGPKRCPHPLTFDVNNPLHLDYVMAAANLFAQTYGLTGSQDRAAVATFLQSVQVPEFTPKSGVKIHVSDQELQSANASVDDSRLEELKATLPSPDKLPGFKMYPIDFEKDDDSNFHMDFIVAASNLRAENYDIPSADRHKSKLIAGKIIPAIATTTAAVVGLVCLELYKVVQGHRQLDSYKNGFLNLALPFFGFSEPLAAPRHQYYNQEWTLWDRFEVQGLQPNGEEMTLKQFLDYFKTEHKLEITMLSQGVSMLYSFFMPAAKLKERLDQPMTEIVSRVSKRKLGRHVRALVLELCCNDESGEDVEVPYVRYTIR

Uba6 (Uba6_Apo; Uba6_WT) [2] = target: T1, Uba6 (Uba6_Apo; Uba6_WT); test: binding test, method not given

Kd (Uba6 (Uba6_Apo; Uba6_WT) [1]): 248 nM | melting temperature (Uba6 SCCH domain; 100 μM InsP3): 47 °C
SMILES: O=P(O)(O)O[C@@H]1[C@H](O)[C@H](O)[C@@H](OP(=O)(O)O)[C@H](OP(=O)(O)O)[C@H]1O [InsP3, D-myo-Inositol 1,4,5-trisphosphate]

Kd (Uba6 (Uba6_Apo; Uba6_WT) [1]): 73 nM | melting temperature (Uba6 SCCH domain; 100 μM InsP5): 54 °C
SMILES: O=P(O)(O)O[C@@H]1[C@@H](OP(=O)(O)O)[C@H](OP(=O)(O)O)[C@H](O)[C@H](OP(=O)(O)O)[C@H]1OP(=O)(O)O [InsP5, D-myo-Inositol 1,3,4,5,6-pentakisphosphate]

SMILES: O=P(O)(O)O[C@H]1[C@H](OP(=O)(O)O)[C@@H](OP(=O)(O)O)[C@H](OP(=O)(O)O)[C@@H](OP(=O)(O)O)[C@H]1OP(=O)(O)O [InsP6]
IC50 (Uba1 (Uba1_WT)): InsP6 failed to inhibit Uba1 activation of Ub

SMILES: O[C@H]1[C@H](O)[C@@H](O)[C@H](O)[C@@H](O)[C@H]1O [myo-inositol]
binding test, method not given (Uba6 (Uba6_Apo; Uba6_WT) [2]): myo-inositol (which lacks phosphates) fails to bind with Uba6 with detectable affinity

— PMC9391358, “Crystal structures reveal catalytic and regulatory mechanisms of the dual-specificity ubiquitin/FAT10 E1 enzyme Uba6” (Nature Communications, 2022)
